Results reported in patent publication US20230059136A1, “THE COMPOUNDS AND COMPOSITIONS FOR TREATING CONDITIONS ASSOCIATED WITH NLRP ACTIVITY” (Novartis AG, priority 2018, published 2023).
Read-outs that look alike come from different tables or passages of the source.

System: IL-1β production in PMA-differentiated THP-1 cells
Experiment: IL-1β production in PMA-differentiated THP-1 cells stimulated with gramicidin (hTHP-1 assay containing 2% fetal bovine serum)
Assay type: cell-based, human
Details: Homo sapiens, 2% fetal bovine serum, read-out: hTHP-1 IC50 (Average IC50 of compounds in hTHP-1 assay)
How it was run: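 THP-1 cells were differentiated with PMA 20 ng/ml for 16-18 h, then plated at 50,000 cells/well in RPMI with 2% FBS. They were preincubated 1 h with compound (100–0.0017 μM final, 0.37% DMSO), then stimulated with gramicidin 5 μM for 2 h. Supernatant IL-1β was measured by HTRF.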

[1] = THP-1, Table B2, cells printed as numeric bound

| Structure (SMILES) | IC50 (THP-1, Table B1, class symbols) [µM] | IC50 (THP-1, Table B2, class symbols) [µM] | other results |
| --- | --- | --- | --- |
| CCc1cc2c(c(C(C)C)c1CC(=O)N=S(N)(=O)c1cnc(C(C)(C)O)s1)COC2 (stereo not shown) [Example 260, N-(amino(2-(2-hydroxypropan-2-yl)thiazol-5-yl)(oxo)-λ^6-sulfaneylidene)-2-(6-ethyl-4-isopropyl-1,3-dihydroisobenzofuran-5-yl)acetamide] | 5 to 30 |  |  |
| CC(C)c1cc2c(cnn2C)c(C(C)C)c1CC(=O)N=S(N)(=O)c1cnc(C(C)(C)O)s1 (stereo not shown) [Example 262, N-(amino(2-(2-hydroxypropan-2-yl)thiazol-5-yl)(oxo)-λ^6-sulfaneylidene)-2-(4,6-diisopropyl-1-methyl-1H-indazol-5-yl)acetamide] | 5 to 30 |  |  |
| CCc1cc2c(c(C(C)C)c1CC(=O)N=S(N)(=O)c1sc(C(C)(C)O)cc1F)COC2 (stereo not shown) [Example 263, N-(amino(3-fluoro-5-(2-hydroxypropan-2-yl)thiophen-2-yl)(oxo)-λ^6-sulfaneylidene)-2-(6-ethyl-4-isopropyl-1,3-dihydroisobenzofuran-5-yl)acetamide] | 1 to 5 |  |  |
| CCc1c2c(cc(C(C)C)c1CC(=O)N=S(N)(=O)c1sc(C(C)(C)O)cc1F)COC2 (stereo not shown) [Example 264, N-(amino(3-fluoro-5-(2-hydroxypropan-2-yl)thiophen-2-yl)(oxo)-λ^6-sulfaneylidene)-2-(4-ethyl-6-isopropyl-1,3-dihydroisobenzofuran-5-yl)acetamide] | 0.2 to 1 |  |  |
| CC(C)c1cc2c(c(C(C)C)c1CC(=O)N=S(N)(=O)c1cccc(C(C)(C)O)c1)COC2 (stereo not shown) [Example 266, N-(amino (3-(2-hydroxypropan-2-yl)phenyl)(oxo)-λ^6-sulfaneylidene)-2-(4,6-diisopropyl-1,3-dihydroisobenzofuran-5-yl)acetamide] | 1 to 5 |  |  |
| CC(C)c1cc2c(c(C(C)C)c1CC(=O)N=S(N)(=O)c1cnn3c1OCCC3)COC2 (stereo not shown) [Example 267, N-(amino(6,7-dihydro-5H-pyrazolo[5,1-b][1,3]oxazin-3-yl)(oxo)-λ^6-sulfaneylidene)-2-(4,6-diisopropyl-1,3-dihydroisobenzofuran-5-yl)acetamide] | 5 to 30 |  |  |
| CC(C)c1ccc(F)c(C(C)C)c1CC(=O)N=S(N)(=O)c1cnn2c1OCCC2 (stereo not shown) [Example 268, N-(amino(6,7-dihydro-5H-pyrazolo[5,1b][1,3]oxazin-3-yl)(oxo)-λ^6-sulfaneylidene)-2-(3-fluoro-2,6-diisopropylphenyl)acetamide] | 1 to 5 |  |  |
| CC(C)c1cc2c(c(C(C)C)c1CC(=O)N=[S@@](N)(=O)c1cnc(C(C)(C)O)s1)COC2(C)C [Example 340, (R)-N-(amino(2-(2-hydroxypropan-2-yl)thiazol-5-yl)(oxo)-λ^6-sulfaneylidene)-2-(4,6-diisopropyl-1,1-dimethyl-1,3-dihydroisobenzofuran-5-yl)acetamide] |  |  | IC50 (THP-1, Table B1, cells printed as numeric bound): > 30 µM |
| CC(C)c1cc(F)cc(C(C)C)c1CC(=O)N=[S@](=O)(NC#N)c1ncc(C(C)(C)O)s1 [Example 341, (S)—N-(cyanamido(5-(2-hydroxypropan-2-yl)thiazol-2-yl)(oxo)-λ^6-sulfaneylidene)-2-(4-fluoro-2,6-diisopropylphenyl)acetamide] | 0.2 to 1 |  |  |
| CC(C)c1cc(F)cc(C(C)C)c1CC(=O)N=[S@@](=O)(NC#N)c1ncc(C(C)(C)O)s1 [Example 342, (R)-N-(cyanamido(5-(2-hydroxypropan-2-yl)thiazol-2-yl)(oxo)-λ^6-sulfaneylidene)-2-(4-fluoro-2,6-diisopropylphenyl)acetamide] | 1 to 5 |  |  |
| CC(C)c1cc(-c2ccc3ccccc3c2)cc(C(C)C)c1CC(=O)N=[S@](=O)(NC#N)c1cnc(C(C)(C)O)s1 [Example 345, (S)-N-(cyanamido(2-(2-hydroxypropan-2-yl)thiazol-5-yl)(oxo)-λ^6-sulfaneylidene)-2-(2,6-diisopropyl-4-(naphthalen-2-yl)phenyl)acetamide] | 5 to 30 |  |  |
| CC(C)c1cc(-c2ccc3ccccc3c2)cc(C(C)C)c1CC(=O)N=[S@@](=O)(NC#N)c1cnc(C(C)(C)O)s1 [Example 346, (R)-N-(cyanamido(2-(2-hydroxypropan-2-yl)thiazol-5-yl)(oxo)-λ^6-sulfaneylidene)-2-(2,6-diisopropyl-4-(naphthalen-2-yl)phenyl)acetamide] | 0.2 to 1 |  |  |
| CC(C)c1cc2c(c(C(C)C)c1CC(=O)N=S(N)(=O)c1ccn(CCO)n1)OC(F)(F)O2 (stereo not shown) [Example 347, N-(amino(1-(2-hydroxyethyl)-1H-pyrazol-3-yl)(oxo)-λ^6-sulfaneylidene)-2-(2,2-difluoro-4,6-diisopropylbenzo[d][1,3]dioxol-5-yl)acetamide] |  | 1 to 5 |  |
| CC(C)c1cc(C#N)c(F)c(C(C)C)c1CC(=O)N=S(N)(=O)c1cnc(C(O)(CO)CO)s1 (stereo not shown) [Example 350, N-(amino(oxo)(2-(1,2,3-trihydroxypropan-2-yl)thiazol-5-yl)-λ^6-sulfaneylidene)-2-(4-cyano-3-fluoro-2,6-diisopropylphenyl)acetamide] |  | 0.2 to 1 |  |
| COc1cc(-c2cccc(C(C)C)c2CC(=O)N=S(=O)(NC(N)=O)c2cnc([C@@](C)(O)CO)s2)ccn1 (stereo partly drawn) [Example 354, N-((2-((S)-1,2-dihydroxypropan-2-yl)thiazol-5-yl)(oxo)(ureido)-λ^6-sulfaneylidene)-2-(2-isopropyl-6-(2-methoxypyridin-4-yl)phenyl)acetamide] |  |  | IC50 [1]: > 30 µM |
| CC(C)c1cc(C#N)c(F)c(C(C)C)c1CC(=O)N=S(=O)(NC#N)c1cnc(C(O)(CO)CO)s1 (stereo not shown) [Example 360, N-(cyanamido(oxo)(2-(1,2,3-trihydroxypropan-2-yl)thiazol-5-yl)-λ^6-sulfaneylidene)-2-(4-cyano-3-fluoro-2,6-diisopropylphenyl)acetamide] |  | 5 to 30 |  |
| CC(C)c1cc2c(c(C(C)C)c1CC(=O)N=[S@](=O)(NC#N)c1cnc(C(C)(C)O)s1)COC2=O [Example 361, (S)-N-(cyanamido(2-(2-hydroxypropan-2-yl)thiazol-5-yl) (oxo)-λ^6-sulfaneylidene)-2-(4,6-diisopropyl-1-oxo-1,3-dihydroisobenzofuran-5-yl)acetamide] |  | 1 to 5 |  |
| CC(C)(O)c1ncc([S@@](=O)(=NC(=O)Cc2c3c(cc4c2CC4)CCC3)NC#N)s1 [Example 362, (R)-N-(cyanamido(2-(2-hydroxypropan-2-yl)thiazol-5-yl) (oxo)-λ^6-sulfaneylidene)-2-(2,4,5,6-tetrahydro-1H-cyclobuta [f]inden-3-yl)acetamide] |  | 1 to 5 |  |
| CC(C)(O)c1ncc([S@](=O)(=NC(=O)Cc2c3c(cc4c2CC4)CCC3)NC#N)s1 [Example 363, (S)-N-(cyanamido(2-(2-hydroxypropan-2-yl)thiazol-5-yl) (oxo)-λ^6-sulfaneylidene)-2-(2,4,5,6-tetrahydro-1H-cyclobuta [f]inden-3-yl)acetamide] |  | 0.2 to 1 |  |
| CC(C)c1cc(C#N)cc(C(C)C)c1CC(=O)N=[S@@](=O)(NC#N)c1ncc(C(C)(C)O)s1 [Example 364, (R)-N-(cyanamido(5-(2-hydroxypropan-2-yl)thiazol-2-yl) (oxo)-λ^6-sulfaneylidene)-2-(4-cyano-2,6-diisopropylphenyl) acetamide] |  | 0.2 to 1 |  |
| CC(C)c1cc(C#N)cc(C(C)C)c1CC(=O)N=[S@](=O)(NC#N)c1ncc(C(C)(C)O)s1 [Example 365] |  |  | IC50 [1]: > 30 µM |
| CC(C)c1cc(C#N)cc(C(C)C)c1CC(=O)N=[S@@](=O)(NC#N)c1sc(C(C)(C)O)nc1CO [Example 366, (R)-N-(cyanamido(4-(hydroxymethyl)-2-(2-hydroxypropan-2-yl)thiazol-5-yl)(oxo)-λ^6-sulfaneylidene)-2-(4-cyano-2,6-diisopropylphenyl)acetamide] |  | 5 to 30 |  |
| CC(C)c1cc(F)cc(C(C)C)c1CC(=O)N=[S@@](=O)(NC#N)c1sc(C(C)(C)O)nc1CO [Example 368, (R)-N-(cyanamido(4-(hydroxymethyl)-2-(2-hydroxypropan-2-yl)thiazol-5-yl)(oxo)-λ^6-sulfaneylidene)-2-(4-fluoro-2,6-diisopropylphenyl)acetamide] |  | 0.04 to 0.2 |  |
| CC(C)c1cc(F)cc(C(C)C)c1CC(=O)N=[S@](=O)(NC#N)c1sc(C(C)(C)O)nc1CO [Example 369, (S)-N-(cyanamido(4-(hydroxymethyl)-2-(2-hydroxypropan-2-yl)thiazol-5-yl)(oxo)-λ^6-sulfaneylidene)-2-(4-fluoro-2,6-diisopropylphenyl)acetamide] |  | 5 to 30 |  |
| CC(C)c1cc(C#N)c(F)c(C(C)C)c1CC(=O)N=[S@@](=O)(NC#N)c1cnc([C@](C)(O)CO)s1 [Example 370, N-((R)-cyanamido(2-((R)-1,2-dihydroxypropan-2-yl)thiazol-5-yl)(oxo)-λ^6-sulfaneylidene)-2-(4-cyano-3-fluoro-2,6-diisopropylphenyl)acetamide] |  |  | IC50 [1]: > 30 µM |
| CC(C)c1cc(C#N)c(F)c(C(C)C)c1CC(=O)N=S(=O)(NC#N)c1cnc(C(O)CO)s1 (stereo not shown) [Example 372, N-(cyanamido(2-(1,2-dihydroxyethyl)thiazol-5-yl)(oxo)-λ^6-sulfaneylidene)-2-(4-cyano-3-fluoro-2,6-diisopropylphenyl)acetamide] |  | 5 to 30 |  |
| CC(C)c1cc(C#N)cc(C(C)C)c1CC(=O)N=[S@](=O)(NC#N)c1sc(C(C)(C)O)nc1CCO [Example 373, (S)-N-(cyanamido(4-(2-hydroxyethyl)-2-(2-hydroxypropan-2-yl)thiazol-5-yl)(oxo)-λ^6-sulfaneylidene)-2-(4-cyano-2,6-diisopropylphenyl)acetamide] |  | 5 to 30 |  |
| CC(C)c1cc(C#N)cc(C(C)C)c1CC(=O)N=[S@@](=O)(NC#N)c1sc(C(C)(C)O)nc1CCO [Example 374, (R)-N-(cyanamido(4-(2-hydroxyethyl)-2-(2-hydroxypropan-2-yl)thiazol-5-yl)(oxo)-λ^6-sulfaneylidene)-2-(4-cyano-2,6-diisopropylphenyl)acetamide] |  | 0.04 to 0.2 |  |
